From publication PMC5627017 (Frontiers in Pharmacology, 2017)
Read-outs that look alike come from different tables or passages of the source. Values belong to the molecule of their own block, whether it stands above or below them.

Assays:
[1] = tested on: H1R; set-up: method as in Slack et al., 2011a,b; conditions: ex vivo organ bath, antagonists continuously removed; ref Slack et al., 2011a,b; cited from earlier work
[2] = target: T1, H1R endogenously expressed in HeLa cells (Homo sapiens, UniProt P35367)
Method: (1) normalizedfluorescentresponse=FHA−Fb/Ft−Fb
The AUC was quantified using GraphPad Prism (GraphPad Software, San Diego, CA, United States). Settings were as such that peaks were ignored when there was less than 1% difference between min and max fluorescence and/or peaks shaped by fewer than 10 data points. The resulting dose-response curves were analyzed by non-linear regression according to Eq. 2.

[3] = tested on: H1R; set-up: method as in Gillard et al., 2002; Schoepke et al., 2013; conditions: ref Gillard et al., 2002; Schoepke et al., 2013; cited from earlier work
[4] = target: T1, H1R endogenously expressed in HeLa cells; test: DMR receptor recovery after washout; conditions: 10x Ki pre-incubation, 1 h and 2 h after washout
Method: For the measurement of DMR in HeLa cells upon treatment by agonists and antagonists, a resonant waveguide grating (RWG) biosensor method was used.
HeLa cells were grown in DMEM High Glucose medium with L-Glutamine supplemented with 10% FBS and 1x penicillin/streptomycin [all reagents were obtained from Capricorn Scientific GmbH (Ebsdorfergrund, Germany)] and incubated in humidified atmosphere at 37°C and 5% CO2 in air.
As vehicle control wells with medium/DMSO treated cells were included. The LFC plate was incubated overnight in a humidified atmosphere at 37°C and 5% CO2 in air. On the next day assay buffer [HBSS (Sigma–Aldrich), 20 mM HEPES (Sigma–Aldrich), 0.5% (v/v) DMSO] was adapted to room temperature before use. 22–24 h after cell seeding antagonists were removed from the LFC plate and wells were washed four times with label-free assay buffer (25 μL/ well). The total assay volume after the washing step was 30 μL/ well.
In all experiments a DMSO concentration of 0.5% (v/v) was not exceeded. The LFC plate was placed in an EnSpire® Multimode Plate Reader equipped with Corning® Epic® Label-free technology.
Data was analyzed individually for each quadrant of the 384 well LFC plate using GraphPad Prism.
Depicted values represent mean and standard deviation of two independent experiments.

[5] = target: T1, H1R endogenously expressed in HeLa cells; test: Receptor recovery of calcium mobilization after antagonist washout; assay type: cell-based; set-up: HeLa cells, endogenously expressing the H1R at low, but physiological relevant densities, were used in both assays; endogenous in cells; host or cells: HeLa cells (in-house cell biobank); conditions: for RecT (receptor recovery time), calcium mobilization: reciprocal of krec
Method: HeLa cells were cultured as described above. HeLa cells were lifted from a subconfluent dish by incubating with a 1x trypsin solution for 4 min. Cells were then seeded in a black, clear bottom 96-well plate, with 2 × 10^4 cells per well. Subsequently, the cells were pre-incubated overnight in culture medium with a range of antagonist concentrations or without antagonist, as is specified per assay format below. After 18–20 h, assay buffer was prepared by supplementing HBSS with 20 mM HEPES pH 7.4 and 2.5 mM probenecid (from a 2.5 × 10^-1 M stock in water). Dye solution was then prepared by dissolving one aliquot of Fluo4 NW in 22 mL assay buffer. Medium was aspirated and Fluo4 NW dye solution was supplemented to the cells and incubated for an hour at 37°C in the presence of the respective antagonist. After labeling the cells with Fluo4 NW, readout of the calcium response was measured per individual well in series.
One 96-well plate with HeLa cells was separated into four sections and each section was pre-incubated with a respective 10 times Ki concentrations of antihistamine or vehicle condition. […] Following Fluo4 NW loading in the presence of the respective concentration antihistamine, cells were washed and reconstituted in 100 μL assay buffer that was pre-heated to 37°C (t0). […] The first measurement was started approximately 2 min after washing the cells and subsequent wells were measured with 75 s intervals. […] The data was analyzed using non-linear regression with a one-phase association model in GraphPad Prism according to Eq. 3.
(3) Y=Y0+(Ymax−Y0)×(1−e^(−krec×t))
For all other antihistamines a free fit of Ymax was allowed, reported in the results as the steady-state recovery (%). Receptor recovery times (RecT) were calculated for each experiment as the reciprocal of the krec. Reported krec and RecT values are the mean ± SEM of ≥3 experiments.

[6] = target: T1, H1R endogenously expressed in HeLa cells; remark: listed apart in the source
[7] = 10x Ki pre-incubation, washout, 37°C, mean ± SEM of ≥3

T1 sequence (P35367 whole entry): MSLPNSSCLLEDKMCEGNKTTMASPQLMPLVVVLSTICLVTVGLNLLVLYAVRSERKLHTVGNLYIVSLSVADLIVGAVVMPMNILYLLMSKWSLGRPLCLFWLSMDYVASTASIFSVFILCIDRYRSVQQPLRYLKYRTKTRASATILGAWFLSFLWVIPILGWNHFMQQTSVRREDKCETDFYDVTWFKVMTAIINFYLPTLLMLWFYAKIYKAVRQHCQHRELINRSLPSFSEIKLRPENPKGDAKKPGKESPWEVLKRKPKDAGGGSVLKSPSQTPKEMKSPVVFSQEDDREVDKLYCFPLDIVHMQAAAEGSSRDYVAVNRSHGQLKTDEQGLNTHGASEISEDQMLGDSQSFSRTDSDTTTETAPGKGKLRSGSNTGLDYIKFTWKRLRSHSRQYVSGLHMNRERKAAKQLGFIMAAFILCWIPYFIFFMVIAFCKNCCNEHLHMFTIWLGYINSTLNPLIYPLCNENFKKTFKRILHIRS

Structure (SMILES): O=c1c2ccccc2c(Cc2ccc(Cl)cc2)nn1C[C@H]1CCCN1CCCCc1ccc(OCCCN2CCCCCC2)cc1 [GSK1004723]
inhibition of histamine-induced, H1R mediated bronchial contraction (in words) [1]: retained a long inhibition

antagonism of histamine-induced calcium mobilization after overnight pre-incubation (in words) ([2]; HeLa cells, increasing antagonist and histamine concentrations): full insurmountable inhibition
insurmountable antagonism of histamine DMR response after washout (in words) [4]: pronounced
suppression of maximal histamine DMR response after washout (in words) [4]: suppressed the Emax up to 2 h
krec (recovery rate of histamine induced calcium mobilization) ([5]; 10x Ki overnight pre-incubation, washout, 10^-5 M histamine, 37°C, mean ± SEM of ≥3): 0.014 ± 0.003 min⁻¹
recovery of histamine induced calcium mobilization after washout (in words) ([5]; 10x Ki pre-incubation, 10^-5 M histamine): even more delayed
Steady-state recovery (%) ([5]; fitted Ymax of histamine-induced calcium response after washout, relative to vehicle pre-treated cells): 104 ± 10%
RecT (receptor recovery time), calcium mobilization [5, 7]: 87 ± 20 min
Structure (SMILES): O=C(O)COCCN1CCN([C@H](c2ccccc2)c2ccc(Cl)cc2)CC1 [Levocetirizine, levocetirizine]
in vivo efficacy after depletion of free concentrations in the blood (in words) [3]: hysteresis of efficacy

antagonism of histamine-induced calcium mobilization after overnight pre-incubation (in words) [2]: full insurmountable inhibition
insurmountable antagonism of histamine DMR response after washout (in words) [4]: pronounced
suppression of maximal histamine DMR response after washout (in words) [4]: suppressed the Emax up to 2 h
krec (recovery rate of histamine induced calcium mobilization) [5]: 0.006 ± 0.001 min⁻¹
recovery of histamine induced calcium mobilization after washout (in words) [5]: even more delayed
RecT (receptor recovery time), calcium mobilization [5, 7]: 226 ± 60 min
Structure (SMILES): CN(C)CC/C=C1/c2ccccc2COc2ccc(CC(=O)O)cc21 [Olopatadine, olopatadine]

Structure (SMILES): Cc1ccc(/C(=C\CN2CCCC2)c2ccccn2)cc1 [Triprolidine, triprolidine]
insurmountable antagonism of histamine DMR response after washout (in words) [4]: showed insurmountable antagonism, but this was the same at 1 and 2 h

Structure (SMILES): CN1CCCC(n2nc(Cc3ccc(Cl)cc3)c3ccccc3c2=O)CC1 (centres unmarked) [azelastine]
inhibition of histamine-induced, H1R mediated bronchial contraction (in words) [1]: retained a long inhibition

Hill slope of histamine, DMR (AUC) ([6]; AUC): 0.88
Hill slope of histamine, DMR (peak response) ([6]; peak response): 0.92
Hill slope of histamine, calcium mobilization [2]: 1.1 ± 0.1
Structure (SMILES): NCCc1c[nH]cn1 [histamine]
